In paper PMC6013238, “Development of novel NEMO-binding domain mimetics for inhibiting IKK/NF-κB activation” (PLoS Biology, 2018):

Test: Hematological measures in acutely treated mice
Assay type: in vivo, mouse
Settings: SR12343 30 mg/kg i.p. 30 min before LPS 10 mg/kg, 2 h; mean ± SD
Description: To determine their NF-κB inhibitory effects in vivo, SR12343 and SR12460 were tested in an acute model of LPS-induced systemic endotoxemia. C57BL/6J mice were pretreated with vehicle control, 8K-NBD peptide, or NBD mimetics at 10 mg/kg for 30 min, followed by LPS induction at 10 mg/kg (Fig 6B). Lung and liver were harvested 2–4 h post treatment for qRT-PCR analysis of NF-κB target genes. […] Despite lower plasma and tissue concentrations of SR12343 compared to SR12460, its inhibition of NF-κB/IKK in liver and lung were greater than that of SR12460 (Fig 6C). Similarly, acute treatment with SR12343 also affected the LPS-induced expression of NF-κB target genes at protein level. The extent of phosphorylation of IκBα and the levels of COX-2 were reduced in lung and liver tissues treated with SR12343 (Fig 6D and 6E). […] However, no significant differences in lung histopathology were observed. Finally, there was a slight reduction in the number of white blood cells and neutrophils in the SR12343-treated group (Table 2).
Nine mice (male; C57BL/6, 9–13 wk) were randomly divided into 3 groups with 3 mice in each group. Mice were injected i.p. with vehicle (DMSO:Tween80:H2O, 10:10:80) or small-molecule SR12343 (30 mg/kg) for 30 min and then injected i.p. with saline (1 ml/kg) or LPS (10 mg/kg in saline). After 2 h, mice were euthanized by CO2 asphyxiation prior to blood sampling via cardiac puncture. The blood from each mouse was put into 2 collection tubes with coagulant or anticoagulant heparin (approximately 0.6 mL each). The samples in the tubes coated with the anticoagulant heparin were hand-mixed several times and placed on wet ice for hematological analysis using an automatic hematology analyzer (Hemavet 950FS; Drew Scientific, Miami Lakes, FL). Samples in tubes containing no anticoagulant were allowed to clot before centrifugation and submission for serum biochemical analysis using the VetScan VS2 Analyzer with the Comprehensive Diagnostic Profile reagent rotor (Abaxis, Union City, CA). The ALT, AST, and […] activities in the serum were quantitated by a colorimetric, enzymatic method using the Clinical Chemistry Analyzer Cobas c311 (Roche Diagnostics, Risch-Rotkreuz, Switzerland) as per the manufacturer’s instructions.

O=C(CNc1ccc(Cl)cn1)NCCc1cccc(Br)c1 [SR12343]
Hematocrit: 53.0 ± 1.5% | Hemoglobin: 15.3 ± 0.4 g/dL | Mean corpuscular hemoglobin: 14.8 ± 0.2 pg | Mean corpuscular hemoglobin concentration: 28.9 ± 0.2 g/dL | Mean corpuscular volume: 51.2 ± 1.0 fL | Mean platelet volume: 5.7 ± 0.8 fL | Platelets: 170.7 ± 64.0 K/μL | Red blood cells: 10.4 ± 0.3 M/μL | Red cell distribution width: 15.0 ± 0.2% | White blood cells: 7.4 ± 3.3 K/μL
